In patent publication US8613914B2, “Peptidomimetic sulfamide compounds and antiviral uses thereof” (Novartis AG, priority 2009, dated 2013):

molecular target: HCV NS3-4A serine protease (full-length NS3-4A protein) (Hepatitis C virus genotype 1a (isolate 1) (HCV), UniProt P26664); assay: HCV NS3-4A protease assay; type: biochemical, HCV genotype 1a; details: strain HCV-1, fluorogenic peptide substrate, read-out: Protease assay Ex. 12 IC50
Protocol: The inhibitory activity of certain compounds of Table A against HCV NS3-4A serine protease is determined in a homogenous assay using the full-length NS3-4A protein (genotype 1a, strain HCV-1) and a commercially available internally-quenched fluorogenic peptide substrate as described by Taliani, M., et al. 1996 Anal. Biochem. 240:60-67, which is incorporated by reference in its entirety.

HCV NS3-4A serine protease (full-length NS3-4A protein), sequence (P26664 1027-1657): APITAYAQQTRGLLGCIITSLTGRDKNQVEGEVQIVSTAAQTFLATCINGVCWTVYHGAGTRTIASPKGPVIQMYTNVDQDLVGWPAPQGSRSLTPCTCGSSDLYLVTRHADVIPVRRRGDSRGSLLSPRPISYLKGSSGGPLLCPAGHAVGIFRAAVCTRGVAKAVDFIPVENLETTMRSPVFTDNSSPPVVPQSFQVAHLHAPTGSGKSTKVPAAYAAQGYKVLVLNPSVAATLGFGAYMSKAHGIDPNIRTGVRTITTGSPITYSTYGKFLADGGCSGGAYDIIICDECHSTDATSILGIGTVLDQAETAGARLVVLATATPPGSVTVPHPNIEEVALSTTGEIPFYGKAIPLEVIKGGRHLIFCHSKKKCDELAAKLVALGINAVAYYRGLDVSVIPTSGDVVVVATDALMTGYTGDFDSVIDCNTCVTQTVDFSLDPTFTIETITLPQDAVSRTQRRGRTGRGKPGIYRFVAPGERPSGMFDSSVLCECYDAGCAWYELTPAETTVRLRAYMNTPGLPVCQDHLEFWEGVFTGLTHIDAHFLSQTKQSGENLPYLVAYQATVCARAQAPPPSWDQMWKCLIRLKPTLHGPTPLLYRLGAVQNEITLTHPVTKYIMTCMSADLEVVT
HCV NS3-4A serine protease (full-length NS3-4A protein), sequence (P26664 1658-1711 partner): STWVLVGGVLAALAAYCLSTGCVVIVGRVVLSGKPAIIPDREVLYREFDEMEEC

`C=C[C@@H]1C[C@]1(NC(=O)[C@@H]1C[C@@]2(CN1C(=O)[C@@H](NC(=O)[C@@H](NC(=O)[C@@H]1CCCCN1C(C)C)C1CCCCC1)C1CCCC1)C(C)(C)C21CCC1)C(=O)NS(=O)(=O)N1CCCC1` [Compound 66, (5R,8S)-7-[(2S)-2-{[(2S)-2-cyclohexyl-2-({[(2S)-1-isopropylpiperidin-2-yl]carbonyl}amino)acetyl]amino}-2-cyclopentylacetyl]-10,10-dimethyl-N-{(1R,2S)-1-[(pyrrolidin-1-ylsulfonyl)carbamoyl]-2-vinylcyclopropyl}-7-azadispiro[3.0.4.1]decane-8-carboxamide] was tested. Which IC50 did it give?
Its IC50 is 5.5 nM.

`C=C[C@@H]1C[C@]1(NC(=O)C1C[C@@]2(CN1C(=O)[C@@H](NC(=O)[C@@H](NC(=O)[C@@H]1CCCCN1C(C)C)C(C)(C)C)C1CCOCC1)C(C)(C)C21CCC1)C(=O)NS(=O)(=O)N1CCCC1` (stereo partly drawn) [Compound 67, (5R)-7-[(2S)-2-[(N-{[(2S)-1-isopropylpiperidin-2-yl]carbonyl}-3-methyl-L-valyl)amino]-2-(tetrahydro-2H-pyran-4-yl)acetyl]-10,10-dimethyl-N-{(1R,2S)-1-[(pyrrolidin-1-ylsulfonyl)carbamoyl]-2-vinylcyclopropyl}-7-azadispiro[3.0.4.1]decane-8-carboxamide] was tested. Which IC50 did it give?
Its IC50 is 20 nM.

How did the IC50 turn out when `C=C[C@@H]1C[C@]1(NC(=O)C1C[C@@]2(CN1C(=O)[C@@H](NC(=O)c1cccc(C(=O)NCCC)c1)C(C)(C)C)C(C)(C)C21CCC1)C(=O)NS(=O)(=O)N1CCCC1` (stereo partly drawn) [Compound 68, N-[(1S)-1-{[(5R)-10,10-dimethyl-8-({(1R,2S)-1-[(pyrrolidin-1-ylsulfonyl)carbamoyl]-2-vinylcyclopropyl}carbamoyl)-7-azadispiro[3.0.4.1]dec-7-yl]carbonyl}-2,2-dimethylpropyl]-N′-propylisophthalamide] was run?
Its IC50 is 950 nM.

With `C=C[C@@H]1C[C@]1(NC(=O)[C@@H]1C[C@@]2(CN1C(=O)[C@@H](NC(=O)[C@@H](NC(=O)c1cccc(N(C)C)n1)C1CCCCC1)C(C)(C)C)C(C)(C)C21CCC1)C(=O)NS(=O)(=O)N1CCCC1` [Compound 69, (5R,8S)-7-[(2S)-2-{[(2S)-2-cyclohexyl-2-({[6-(dimethylamino)pyridin-2-yl]carbonyl}amino)acetyl]amino}-3,3-dimethylbutanoyl]-10,10-dimethyl-N-{(1R,2S)-1-[(pyrrolidin-1-ylsulfonyl)carbamoyl]-2-vinylcyclopropyl}-7-azadispiro[3.0.4.1]decane-8-carboxamide] as the molecule, how does the IC50 read?
Its IC50 is 50 nM.

With `C=C[C@@H]1C[C@]1(NC(=O)[C@@H]1C[C@@]2(CN1C(=O)[C@@H](NC(=O)[C@@H](NC(=O)c1cccnc1N(C)C)C1CCCCC1)C(C)(C)C)C(C)(C)C21CCC1)C(=O)NS(=O)(=O)N1CCCC1` [Compound 70, (5R,8S)-7-[(2S)-2-{[(2S)-2-cyclohexyl-2-({[2-(dimethylamino)pyridin-3-yl]carbonyl}amino)acetyl]amino}-3,3-dimethylbutanoyl]-10,10-dimethyl-N-{(1R,2S)-1-[(pyrrolidin-1-ylsulfonyl)carbamoyl]-2-vinylcyclopropyl}-7-azadispiro[3.0.4.1]decane-8-carboxamide] as the molecule, how does the IC50 read?
The IC50 was 35 nM.

For `C=C[C@@H]1C[C@]1(NC(=O)[C@@H]1C[C@@]2(CN1C(=O)[C@@H](NC(=O)[C@@H](NC(=O)[C@@H]1CCCN1CC(F)(F)F)C1CCCCC1)C1CCOCC1)C(C)(C)C21CCC1)C(=O)NS(=O)(=O)N1CCCC1` [Compound 71, (5R,8S)-7-[(2S)-2-{[(2S)-2-cyclohexyl-2-({[(2S)-1-(2,2,2-trifluoroethyl)pyrrolidin-2-yl]carbonyl}amino)acetyl]amino}-2-(tetrahydro-2H-pyran-4-yl)acetyl]-10,10-dimethyl-N-{(1R,2S)-1-[(pyrrolidin-1-ylsulfonyl)carbamoyl]-2-vinylcyclopropyl}-7-azadispiro[3.0.4.1]decane-8-carboxamide], which IC50 is on record?
Its IC50 is 40 nM.

`C=C[C@@H]1C[C@]1(NC(=O)[C@@H]1C[C@@]2(CN1C(=O)[C@@H](NC(=O)[C@@H](NC(=O)[C@@H]1CCCN1CC(F)F)C1CCCCC1)C1CCOCC1)C(C)(C)C21CCC1)C(=O)NS(=O)(=O)N1CCCC1` [Compound 72, (5R,8S)-7-[(2S)-2-{[(2S)-2-cyclohexyl-2-({[(2S)-1-(2,2-difluoroethyl)pyrrolidin-2-yl]carbonyl}amino)acetyl]amino}-2-(tetrahydro-2H-pyran-4-yl)acetyl]-10,10-dimethyl-N-{(1R,2S)-1-[(pyrrolidin-1-ylsulfonyl)carbamoyl]-2-vinylcyclopropyl}-7-azadispiro[3.0.4.1]decane-8-carboxamide] was tested. Which IC50 did it give?
The IC50 was 70 nM.

How did the IC50 turn out when `C=C[C@@H]1C[C@]1(NC(=O)[C@@H]1C[C@@]2(CN1C(=O)[C@@H](NC(=O)[C@@H](NC(=O)[C@@H]1CCCN1CCF)C1CCCCC1)C1CCOCC1)C(C)(C)C21CCC1)C(=O)NS(=O)(=O)N1CCCC1` [Compound 73, (5R,8S)-7-[(2S)-2-{[(2S)-2-cyclohexyl-2-({[(2S)-1-(2-fluoroethyl)pyrrolidin-2-yl]carbonyl}amino)acetyl]amino}-2-(tetrahydro-2H-pyran-4-yl)acetyl]-10,10-dimethyl-N-{(1R,2S)-1-[(pyrrolidin-1-ylsulfonyl)carbamoyl]-2-vinylcyclopropyl}-7-azadispiro[3.0.4.1]decane-8-carboxamide] was run?
The IC50 was 15 nM.

For `C=C[C@@H]1C[C@]1(NC(=O)[C@@H]1C[C@@]2(CN1C(=O)[C@@H](NC(=O)[C@@H](NC(=O)[C@@H]1CCCCN1CC(F)F)C1CCCCC1)C1CCOCC1)C(C)(C)C21CCC1)C(=O)NS(=O)(=O)N1CCCC1` [Compound 74, (5R,8S)-7-[(2S)-2-{[(2S)-2-cyclohexyl-2-({[(2S)-1-(2,2-difluoroethyl)piperidin-2-yl]carbonyl}amino)acetyl]amino}-2-(tetrahydro-2H-pyran-4-yl)acetyl]-10,10-dimethyl-N-{(1R,2S)-1-[(pyrrolidin-1-ylsulfonyl)carbamoyl]-2-vinylcyclopropyl}-7-azadispiro[3.0.4.1]decane-8-carboxamide], which IC50 is on record?
Its IC50 is 65 nM.

With `C=C[C@@H]1C[C@]1(NC(=O)[C@@H]1C[C@@]2(CN1C(=O)[C@@H](NC(=O)[C@@H](NC(=O)[C@@H]1CCCCN1CCF)C1CCCCC1)C1CCOCC1)C(C)(C)C21CCC1)C(=O)NS(=O)(=O)N1CCCC1` [Compound 75, (5R,8S)-7-[(2S)-2-{[(2S)-2-cyclohexyl-2-({[(2S)-1-(2-fluoroethyl)piperidin-2-yl]carbonyl}amino)acetyl]amino}-2-(tetrahydro-2H-pyran-4-yl)acetyl]-10,10-dimethyl-N-{(1R,2S)-1-[(pyrrolidin-1-ylsulfonyl)carbamoyl]-2-vinylcyclopropyl}-7-azadispiro[3.0.4.1]decane-8-carboxamide] as the molecule, how does the IC50 read?
Its IC50 is 30 nM.

How did the IC50 turn out when `C=C[C@@H]1C[C@]1(NC(=O)[C@@H]1C[C@@]2(CN1C(=O)[C@@H](NC(=O)[C@@H](NC(=O)[C@@H]1CCCN1C(=O)OCCF)C1CCCCC1)C1CCOCC1)C(C)(C)C21CCC1)C(=O)NS(=O)(=O)N1CCCC1` [Compound 76, 2-fluoroethyl(2S)-2-{[(1S)-1-cyclohexyl-2-{[(1S)-2-[(5R,8S)-10,10-dimethyl-8-({(1R,2S)-1-[(pyrrolidin-1-ylsulfonyl)carbamoyl]-2-vinylcyclopropyl}carbamoyl)-7-azadispiro[3.0.4.1]dec-7-yl]-2-oxo-1-(tetrahydro-2H-pyran-4-yl)ethyl]amino}-2-oxoethyl]carbamoyl}pyrrolidine-1-carboxylate] was run?
The IC50 was 80 nM.

How did the IC50 turn out when `C=C[C@@H]1C[C@]1(NC(=O)[C@@H]1C[C@@]2(CN1C(=O)[C@@H](NC(=O)[C@@H](NC(=O)[C@@H]1CCCCN1CC)C1CCCCC1)C(C)(C)C)C(C)(C)C21CCC1)C(=O)NS(=O)(=O)N(CC)CC` [Compound 77, (5R,8S)-7-[(2S)-2-{[(2S)-2-cyclohexyl-2-({[(2S)-1-ethylpiperidin-2-yl]carbonyl}amino)acetyl]amino}-3,3-dimethylbutanoyl]-N-[(1R,2S)-1-{[(diethylamino)sulfonyl]carbamoyl}-2-vinylcyclopropyl]-10,10-dimethyl-7-azadispiro[3.0.4.1]decane-8-carboxamide] was run?
The IC50 was 0.9 nM.

Which IC50 does the source give for `C=C[C@@H]1C[C@]1(NC(=O)C1C[C@@]2(CN1C(=O)[C@@H](NC(=O)C1CCCNC1=O)C(C)(C)C)C(C)(C)C21CCC1)C(=O)NS(=O)(=O)N1CCCC1` (stereo partly drawn) [Compound 78, (5R)-7-[(2S)-3,3-dimethyl-2-{[(2-oxopiperidin-3-yl)carbonyl]amino}butanoyl]-10,10-dimethyl-N-{(1R,2S)-1-[(pyrrolidin-1-ylsulfonyl)carbamoyl]-2-vinylcyclopropyl}-7-azadispiro[3.0.4.1]decane-8-carboxamide] here?
Its IC50 is 650 nM.

How did the IC50 turn out when `C=C[C@@H]1C[C@]1(NC(=O)[C@@H]1C[C@@]2(CN1C(=O)[C@@H](NC(=O)[C@@H](NC(=O)[C@@H]1CCCCN1CC)C1CCCC1)C(C)(C)C)C(C)(C)C21CCC1)C(=O)NS(=O)(=O)N(CC)CC` [Compound 81, (5R,8S)-7-[(2S)-2-{[(2S)-2-cyclopentyl-2-({[(2S)-1-ethylpiperidin-2-yl]carbonyl}amino)acetyl]amino}-3,3-dimethylbutanoyl]-N-[(1R,2S)-1-{[(diethylamino)sulfonyl]carbamoyl}-2-vinylcyclopropyl]-10,10-dimethyl-7-azadispiro[3.0.4.1]decane-8-carboxamide] was run?
Its IC50 is 4 nM.

For `C=C[C@@H]1C[C@]1(NC(=O)[C@@H]1C[C@@]2(CN1C(=O)[C@@H](NC(=O)[C@@H](NC(=O)[C@@H]1CCCCN1C(C)C)C1CCCCC1)C(C)(C)C)C(C)(C)C21CCC1)C(=O)NS(=O)(=O)N(C)CC(F)F` [Compound 83, (5R,8S)-7-[(2S)-2-{[(2S)-2-cyclohexyl-2-({[(2S)-1-isopropylpiperidin-2-yl]carbonyl}amino)acetyl]amino}-3,3-dimethylbutanoyl]-N-[(1R,2S)-1-({[(2,2-difluoroethyl)(methyl)amino]sulfonyl}carbamoyl)-2-vinylcyclopropyl]-10,10-dimethyl-7-azadispiro[3.0.4.1]decane-8-carboxamide], which IC50 is on record?
The IC50 was 2 nM.
